For the test, the system named is SARS-CoV-2 replicon. The test is classed as cell-based. The conditions noted are these: read-out: SARS-CoV-2 Replicon (Huh-7cell) EC50.

As for `CCC(CC)COC(=O)[C@H](C)N[P@](=O)(OCOC(=O)C(C)(C)C)OC[C@H]1O[C@@](C#N)(c2ccc3c(N)ncnn23)[C@H](OC(=O)C(C)(C)C)[C@@H]1OC(=O)C(C)(C)C` [Compound 12a, (2R,3R,4R,5R)-2-(4-aminopyrrolo[2,1-f][1,2,4]triazin-7-yl)-2-cyano-5-((((R)-(((S)-1-(2-ethylbutoxy)-1-oxopropan-2-yl)amino)((pivaloyloxy)methoxy)phosphoryl)oxy)methyl)tetrahydrofuran-3,4-diyl bis(2,2-dimethylpropionate)], the EC50 lay in the range of 0.05 to 0.5 µM. For `CC(C)OC(=O)OCO[P@](=O)(OC[C@H]1O[C@@](C#N)(c2ccc3c(N)ncnn23)[C@H](OC(=O)C(C)C)[C@@H]1OC(=O)C(C)C)Oc1ccc(C(C)(C)C)cc1` [Compound 24b], the EC50 is 0.01 to 0.05 µM.

Regarding `CCC(CC)COC(=O)[C@H](Cc1ccccc1)N[P@](=O)(OC[C@H]1O[C@@](C#N)(c2ccc3c(N)ncnn23)[C@H](OC(=O)C(C)C)[C@@H]1OC(=O)C(C)C)Oc1ccc(C(C)(C)C)cc1` [Compound 53b, (2R,3R,4R,5R)-2-(4-aminopyrrolo[2,1-f][1,2,4]triazin-7-yl)-2-cyano-5-((((((S)-1-(2-ethylbutoxy)-1-oxo-3-phenylpropan-2-yl)amino)((S)-4-tert-butylphenoxy)phosphoryl)oxy)methyl)tetrahydrofuran-3,4-diyl bis(2-methylpropionate)], the EC50 was in the range of 0.01 to 0.05 µM. Regarding `[2H]c1cc([C@]2(C#N)O[C@H](COP(=O)(OCOC(=O)OC(C)C)OCOC(=O)OC(C)C)[C@@H](OC(=O)C(C)C)[C@H]2OC(=O)C(C)C)n2ncnc(N)c12` [Compound 21, (2R,3R,4R,5R)-2-(4-amino-5-deuteriopyrrolo[2,1-f][1,2,4]triazin-7-yl)-5-((((bis(((isopropoxycarbonyl)oxy)methoxy))phosphoryl)oxy)methyl)-2-cyanotetrahydrofuran-3,4-diyl bis(2-methylpropionate)], the EC50 is below 0.005 µM. As to `CCC(=O)O[C@H]1[C@@H](OC(=O)CC)[C@](C#N)(c2ccc3c(N)ncnn23)O[C@@H]1CO[P@](=O)(N[C@@H](C)C(=O)OCC(CC)CC)OCOC(=O)OC(C)C` [Compound 6a, (2R,3R,4R,5R)-2-(4-aminopyrrolo[2,1-f][1,2,4]triazin-7-yl)-2-cyano-5-((((R)-(((S)-1-(2-ethylbutoxy)-1-oxopropan-2-yl)amino)(((isopropoxycarbonyl)oxy)methoxy)phosphoryl)oxy)methyl)tetrahydrofuran-3,4-diyl dipropionate], the EC50 lay within 0.005 to 0.01 µM. Take `CCCCCOC(=O)C[C@H](N[P@@](=O)(OC[C@H]1O[C@@](C#N)(c2ccc3c(N)ncnn23)[C@H](OC(=O)C(C)C)[C@@H]1OC(=O)C(C)C)Oc1ccccc1)C(=O)OCCCCC` [Compound 38a, (2R,3R,4R,5R)-2-(4-aminopyrrolo[2,1-f][1,2,4]triazin-7-yl)-2-cyano-5-((((R)-(((S)-1,4-dipentyloxy-1,4-dioxobutan-2-yl)amino)(phenoxy)phosphoryl)oxy)methyl)tetrahydrofuran-3,4-diyl bis(2-methylpropionate)]: the EC50 was in the range of 0.05 to 0.5 µM. As to `COC(C)(C)COC(=O)[C@H](Cc1ccccc1)N[P@](=O)(OC[C@H]1O[C@@](C#N)(c2ccc3c(N)ncnn23)[C@H](OC(=O)C(C)C)[C@@H]1OC(=O)C(C)C)Oc1ccccc1` [Compound 64b, (2R,3R,4R,5R)-2-(4-aminopyrrolo[2,1-f][1,2,4]triazin-7-yl)-2-cyano-5-((((S)-(((S)-1-(2-methoxy-2-methylpropoxy)-1-oxo-3-phenylpropan-2-yl)amino)(phenoxy)phosphoryl)oxy)methyl)tetrahydrofuran-3,4-diyl bis(2-methylpropionate)], the EC50 was below 0.005 µM.

Take `CCC(CC)COC(=O)C1(N[P@](=O)(OC[C@H]2O[C@@](C#N)(c3ccc4c(N)ncnn34)[C@H](OC(=O)C(C)C)[C@@H]2OC(=O)C(C)C)Oc2ccccc2)CCC1` [Compound 40b, (2R,3R,4R,5R)-2-(4-aminopyrrolo[2,1-f][1,2,4]triazin-7-yl)-2-cyano-5-((((S)-((1-((2-ethylbutoxy)carbonyl)cyclobutyl)amino)(phenoxy)phosphoryl)oxy)methyl)tetrahydrofura n-3,4-diyl bis(2-methylpropionate)]: the EC50 is 0.05 to 0.5 µM. Consider `CC(C)C(=O)O[C@H]1[C@@H](OC(=O)C(C)C)[C@](C#N)(c2ccc3c(N)ncnn23)O[C@@H]1CO[P@](=O)(N[C@@H](Cc1ccccc1)C(=O)OC1CCC1)Oc1ccccc1` [Compound 63a], for which the EC50 was 0.01 to 0.05 µM. In the case of `CCC(=O)O[C@H]1[C@@H](OC(=O)CC)[C@](C#N)(c2ccc3c(N)ncnn23)O[C@@H]1CO[P@@](=O)(N[C@@H](C)C(=O)OCC(CC)CC)OCOC(=O)OC(C)C` [Compound 6b, (2R,3R,4R,5R)-2-(4-aminopyrrolo[2,1-f][1,2,4]triazin-7-yl)-2-cyano-5-((((S)-(((S)-1-(2-ethylbutoxy)-1-oxopropan-2-yl)amino)(((isopropoxycarbonyl)oxy)methoxy)phosphoryl)oxy)methyl)tetrahydrofuran-3,4-diyl dipropionate], the EC50 is at most 0.005 µM.

With `CC(C)OC(=O)OCO[P@@](=O)(N[C@@H](C)C(=O)OC(C)C)OC[C@H]1O[C@@](C#N)(c2ccc3c(N)ncnn23)[C@H](OC(=O)C(C)C)[C@@H]1OC(=O)C(C)C` [Compound 3a, (2R,3R,4R,5R)-2-(4-aminopyrrolo[2,1-f][1,2,4]triazin-7-yl)-2-cyano-5-((((R)-(((S)-1-isopropoxy-1-oxopropan-2-yl)amino)(((isopropoxycarbonyl)oxy)methoxy)phosphoryl)oxy)methyl)tetrahydrofuran-3,4-diyl bis(2-methylpropionate)], the EC50 lay within 0.01 to 0.05 µM. Consider `CCCCCOC(=O)C[C@H](N[P@](=O)(OC[C@H]1O[C@@](C#N)(c2ccc3c(N)ncnn23)[C@H](OC(=O)C(C)C)[C@@H]1OC(=O)C(C)C)Oc1ccccc1)C(=O)OCCCCC` [Compound 38b, (2R,3R,4R,5R)-2-(4-aminopyrrolo[2,1-f][1,2,4]triazin-7-yl)-2-cyano-5-((((S)-(((S)-1,4-dipentyloxy-1,4-dioxobutan-2-yl)amino)(phenoxy)phosphoryl)oxy)methyl)tetrahydrofuran-3,4-diyl bis(2-methylpropionate)], for which the EC50 fell in the range of 0.01 to 0.05 µM. With `CC(C)OC(=O)OCO[P@](=O)(N[C@@H](C)C(=O)OC(C)C)OC[C@H]1O[C@@](C#N)(c2ccc3c(N)ncnn23)[C@H](OC(=O)C(C)(C)C)[C@@H]1OC(=O)C(C)(C)C` [Compound 4b, (2R,3R,4R,5R)-2-(4-aminopyrrolo[2,1-f][1,2,4]triazin-7-yl)-2-cyano-5-((((S)-(((S)-1-isopropoxy-1-oxopropan-2-yl)amino)(((isopropoxycarbonyl)oxy)methoxy)phosphoryl)oxy)methyl)tetrahydrofuran-3,4-diyl bis(2,2-dimethylpropionate)] the figure was 0.05 to 0.5 µM; with `CC(C)OC(=O)OCOP(=O)(OCOC(=O)OC(C)C)OC[C@H]1O[C@@](C#N)(c2ccc3c(N)ncnn23)[C@H](OC(=O)C(C)(C)C)[C@@H]1OC(=O)C(C)(C)C` [Compound 20, (2R,3R,4R,5R)-2-(4-aminopyrrolo[2,1-f][1,2,4]triazin-7-yl)-5-((((bis(((isopropoxycarbonyl)oxy)methoxy))phosphoryl)oxy)methyl)-2-cyanotetrahydrofuran-3,4-diyl bis(2,2-dimethylpropionate)], 0.01 to 0.05 µM; with `CCC(CC)COC(=O)C[C@H](N[P@@](=O)(OC[C@H]1O[C@@](C#N)(c2ccc3c(N)ncnn23)[C@H](OC(=O)C(C)C)[C@@H]1OC(=O)C(C)C)Oc1ccccc1)C(=O)OCC(CC)CC` [Compound 62a, (2R,3R,4R,5R)-2-(4-aminopyrrolo[2,1-f][1,2,4]triazin-7-yl)-2-cyano-5-((((R)-(((S)-1,4-bis(2-ethylbutoxy)-1,4-dioxobutan-2-yl)amino)(phenoxy)phosphoryl)oxy)methyl)tetrahydrofuran-3,4-diyl bis(2-methylpropionate)], 0.05 to 0.5 µM. As to `CCC(=O)O[C@H]1[C@@H](OC(=O)CC)[C@](C#N)(c2ccc3c(N)ncnn23)O[C@@H]1CO[P@@](=O)(N[C@@H](C)C(=O)OCC(CC)CC)OCOC(=O)C(C)(C)C` [Compound 10b, (2R,3R,4R,5R)-2-(4-aminopyrrolo[2,1-f][1,2,4]triazin-7-yl)-2-cyano-5-((((S)-(((S)-1-(2-ethylbutoxy)-1-oxopropan-2-yl)amino)((pivaloyloxy)methoxy)phosphoryl)oxy)methyl)tetrahydrofuran-3,4-diyl dipropionate], the EC50 was at most 0.005 µM. In the case of `CC(C)C(=O)O[C@H]1[C@@H](OC(=O)C(C)C)[C@](C#N)(c2ccc3c(N)ncnn23)O[C@@H]1CO[P@](=O)(N[C@@H](CC(=O)OC1CCC1)C(=O)OC1CCC1)Oc1ccccc1` [Compound 54a, (2R,3R,4R,5R)-2-(4-aminopyrrolo[2,1-f][1,2,4]triazin-7-yl)-2-cyano-5-((((R)-(((S)-1,4-dicyclobutoxy-1,4-dioxobutan-2-yl)amino)(phenoxy)phosphoryl)oxy)methyl)tetrahydrofuran-3,4-diyl bis(2-methylpropionate)], the EC50 fell in the range of 0.01 to 0.05 µM. As for `CCC(CC)COC(=O)[C@H](Cc1ccccc1)N[P@@](=O)(OC[C@H]1O[C@@](C#N)(c2ccc3c(N)ncnn23)[C@H](OC(=O)C(C)C)[C@@H]1OC(=O)C(C)C)Oc1ccccc1` [Compound 41a, (2R,3R,4R,5R)-2-(4-aminopyrrolo[2,1-f][1,2,4]triazin-7-yl)-2-cyano-5-((((R)-(((S)-1-(2-ethylbutoxy)-1-oxo-3-phenylpropan-2-yl)amino)(phenoxy)phosphoryl)oxy)methyl)tetrahydrofuran-3,4-diyl bis(2-methylpropionate)], the figure is 0.05 to 0.5 µM. As to `CCCCC/C=C\C/C=C\CCCCCCCCOC(=O)[C@H](C)N[P@@](=O)(OCOC(=O)OC(C)C)OC[C@H]1O[C@@](C#N)(c2ccc3c(N)ncnn23)[C@H](OC(=O)C(C)C)[C@@H]1OC(=O)C(C)C` [Compound 52b, (2R,3R,4R,5R)-2-(4-aminopyrrolo[2,1-f][1,2,4]triazin-7-yl)-2-cyano-5-((((S)-(((isopropoxycarbonyl)oxy)methoxy)(((S)-1-(((9Z,12Z)-octadeca-9,12-dien-1-yl)oxy)-1-oxopropan-2-yl)amino)phosphoryl)oxy)methyl)tetrahydrofuran-3,4-diyl bis(2-methylpropionate)], the EC50 was 0.05 to 0.5 µM.

One may read the EC50 as the concentration at which the effect is half-maximal.

(Values after patent publication EP4617278A1, “NUCLEOTIDE ANALOG, AND COMPOSITION AND USE THEREOF” (priority 2022, dated 2024).)
